# Key:
# Assay type in all cases: biochemical
# unphosphorylated HGFR = target: T1, unphosphorylated HGFR (Homo sapiens, UniProt P08581); test: Coupled enzymatic (PK/LDH) kinase assay, unphosphorylated HGFR
# T1 construct: The cDNA corresponding to residues 1051-1349 of the HGFR kinase catalytic domain (HGFRkd) was cloned into a pFastBac plasmid; added N-terminal methionine (start codon of the NcoI site) (N); made in house; host or cells: Sf9 insect cells, recombinant baculovirus (pFastBac-NcoI)
# T1 sequence (P08581 1051-1349): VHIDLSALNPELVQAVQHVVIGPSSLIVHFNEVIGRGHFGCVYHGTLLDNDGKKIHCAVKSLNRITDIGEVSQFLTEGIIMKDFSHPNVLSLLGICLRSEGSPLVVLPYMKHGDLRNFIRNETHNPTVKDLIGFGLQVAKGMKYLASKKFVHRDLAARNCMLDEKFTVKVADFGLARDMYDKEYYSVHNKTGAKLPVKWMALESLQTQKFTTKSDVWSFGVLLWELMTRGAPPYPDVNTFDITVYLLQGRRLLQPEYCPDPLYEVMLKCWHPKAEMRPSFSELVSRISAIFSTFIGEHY
# Description: (§1) A coupled enzymatic assay format was used to measure both HGFR and phospho-HGFR(PHGFR) activities. The kinase-catalyzed production of ADP from ATP that accompanies phosphate transfer to the random copolymer poly(Glu4Tyr) or peptide substrate was coupled to the oxidation of NADH through the activities of pyruvate kinase (PK) and lactate dehydrogenase (LDH). NADH conversion to NAD^+ was monitored by the decrease in absorbance at 340 nm (ε=6.22 cm^−1 mM^−1) using a Beckman DU650 spectrophotometer. A typical reaction solution contained 1 mM phosphoenolpyruvate, 0.24 mM NADH, 40 mM MgCl2, 5 mM DTT, poly(Glu4Tyr), ATP, 15 units/mL PK, 15 units/mL LDH in 100 mM HEPES, pH 7.5. ATP was varied from 0.5 to 2000 μM and poly(Glu4Tyr) was varied from 0.5 to 20 mg/mL. In addition, Met2 peptide (0-4 mM) could be used instead of poly(Glu4Tyr). Assays were initiated with the addition of 12 nM phosphorylated HGFR or 125 nM unphosphorylated HGFR. Inhibition studies were performed as described above with following exceptions: 0.075 mM ATP (PHGFR) and 0.375 mM ATP (HGFR). Data was fit to the equation for competitive inhibition by the method of nonlinear least squares (KaleidaGraph).
# The kinetic consequences of the autophosphorylation were investigated. HGFR and pHGFR activities were evaluated in two distinct and complementing assay formats. […] NADH conversion to NAD^+ was monitored spectrophotometrically by the decrease in absorbance at 340 nm (ε=6.22 cm^−1 mM^−1). […]
# (§2) Inhibition of HGFR and pHGFR were monitored in two distinct assay formats to insure valid results. The coupled, enzymatic format (CE) was a continuous assay that measured ADP production through the sequential action of two standard coupling enzymes (pyruvate kinase and lactate dehydrogenase). The radioactive assay format was a discontinuous assay that measured phospho-protein production directly. […]
# (§3) The coupled enzymatic analysis of HGFR processing of ATP and poly(Glu4Tyr) were measured at 37° C. Variable substrate concentration was measured at a fixed saturating concentration of the other substrate.
# pHGFR = target: T2, pHGFR (Homo sapiens, UniProt P08581); test: Radioactive glass fiber filterplate assay (32P transfer to dephosphorylated α-casein)
# T2 construct: The cDNA corresponding to residues 1051-1349 of the HGFR kinase catalytic domain (HGFRkd) was cloned into a pFastBac plasmid; added N-terminal methionine (start codon of the NcoI site) (N); made in house; host or cells: Sf9 insect cells, recombinant baculovirus; then autophosphorylated in vitro with MgATP
# T2 sequence (P08581 1051-1349): as above
# Description: (§4) The kinetic consequences of the autophosphorylation were investigated. HGFR and pHGFR activities were evaluated in two distinct and complementing assay formats. […] A coupled, enzymatic assay format (CE format) was used to measure ADP production. HGFR-catalyzed production of ADP from ATP that accompanied phosphate transfer to the random copolymer poly(Glu4Tyr) was coupled to the oxidation of NADH through the sequential activities of pyruvate kinase (PK) and lactate dehydrogenase (LDH). NADH conversion to NAD^+ was monitored spectrophotometrically by the decrease in absorbance at 340 nm (ε=6.22 cm^−1 mM^−1). A second assay format was used to measure the production of [^32P]-labeled phospho-protein (dephosphorylated α-casein). Dephosphorylated α-casein is the substrate for HGFR […] in a glass fiber filterplate assay format. […]
# as §2
# [1] = target: T3, phosphorylated HGFR (pHGFR) (Homo sapiens, UniProt P08581); test: Coupled enzymatic (PK/LDH) kinase assay, phospho-HGFR
# T3 construct: The cDNA corresponding to residues 1051-1349 of the HGFR kinase catalytic domain (HGFRkd) was cloned into a pFastBac plasmid; added N-terminal methionine (start codon of the NcoI site) (N); made in house; host or cells: Sf9 insect cells, recombinant baculovirus; then autophosphorylated in vitro with MgATP
# T3 sequence (P08581 1051-1349): as above
# Description: as §1, §4, §2, §3
# [2] = coupled enzymatic analysis, 37° C., other substrate fixed saturating
smiles,measurement,setting,value
"O=C1Nc2ccc3ncsc3c2/C1=C/Nc1ccc(S(=O)(=O)NCCOCCO)cc1 [Compound 1, 4-[[(Z)-(6,7-dihydro-7-oxo-8H-pyrrolo[2,3-g]benzothiazol-8-ylidene)methyl]amino]-N-[2-(2-hydroxyethoxy)ethyl]-(9CI)]",Ki,"unphosphorylated HGFR; coupled enzymatic format, 0.375 mM ATP, data fit to equation for competitive inhibition, read-out: inhibition (HGFR/CE format)",500 ± 30 nM
same,Ki,"pHGFR; radioactive filterplate format, 27.5 nM pHGFR, 0.075 mM ATP, RT, 30 min, read-out: inhibition (pHGFR/radioactive format)",128 ± 17 nM
same,mechanism of pHGFR inhibition (double reciprocal analysis),"[1]; CE assay, ATP 25-3200 μM, Compound 1 0-1200 nM, pHGFR 25 nM, Met2 peptide 0.5 mM",ATP-competitive inhibitor
same,Ki,"[1]; coupled enzymatic format, 0.075 mM ATP, data fit to equation for competitive inhibition, read-out: inhibition (pHGFR/CE format)",381 ± 19 nM
"Nc1ncnc2c1ncn2[C@@H]1O[C@H](COP(=O)(O)OP(=O)([O-])OP(=O)([O-])O)[C@@H](O)[C@H]1O.[Mg+2] [MgATP, ATP]",Km,unphosphorylated HGFR; [2],373 ± 61 µM
same,"kcat, Unphosphorylated HGFR",unphosphorylated HGFR; [2],1.02 ± 0.013 s⁻¹
same,Km,"pHGFR; radioactive filtermate format, dephosphorylated α-casein phosphoacceptor, read-out: Km for ATP (radioactive filtermate format)",78.6 ± 12.1 µM
same,"kcat, Phospho-HGFR",[1]; [2],31.3 ± 2.1 s⁻¹
same,Km,"[1]; coupled enzymatic analysis, 37° C., other substrate fixed saturating, read-out: Km, Phospho-HGFR",73.7 ± 2.8 µM
